From ChEMBL document CHEMBL4477252, “Optimization of microtubule affinity regulating kinase (MARK) inhibitors with improved physical properties” (Bioorg Med Chem Lett, 2016) come the findings set out here.

SMILES strings stand for the structures. A value given as a limit tells only on which side of the number the result lay.

Chain of Hepatocyte growth factor receptor (P08581 whole entry, the tested form may be a part): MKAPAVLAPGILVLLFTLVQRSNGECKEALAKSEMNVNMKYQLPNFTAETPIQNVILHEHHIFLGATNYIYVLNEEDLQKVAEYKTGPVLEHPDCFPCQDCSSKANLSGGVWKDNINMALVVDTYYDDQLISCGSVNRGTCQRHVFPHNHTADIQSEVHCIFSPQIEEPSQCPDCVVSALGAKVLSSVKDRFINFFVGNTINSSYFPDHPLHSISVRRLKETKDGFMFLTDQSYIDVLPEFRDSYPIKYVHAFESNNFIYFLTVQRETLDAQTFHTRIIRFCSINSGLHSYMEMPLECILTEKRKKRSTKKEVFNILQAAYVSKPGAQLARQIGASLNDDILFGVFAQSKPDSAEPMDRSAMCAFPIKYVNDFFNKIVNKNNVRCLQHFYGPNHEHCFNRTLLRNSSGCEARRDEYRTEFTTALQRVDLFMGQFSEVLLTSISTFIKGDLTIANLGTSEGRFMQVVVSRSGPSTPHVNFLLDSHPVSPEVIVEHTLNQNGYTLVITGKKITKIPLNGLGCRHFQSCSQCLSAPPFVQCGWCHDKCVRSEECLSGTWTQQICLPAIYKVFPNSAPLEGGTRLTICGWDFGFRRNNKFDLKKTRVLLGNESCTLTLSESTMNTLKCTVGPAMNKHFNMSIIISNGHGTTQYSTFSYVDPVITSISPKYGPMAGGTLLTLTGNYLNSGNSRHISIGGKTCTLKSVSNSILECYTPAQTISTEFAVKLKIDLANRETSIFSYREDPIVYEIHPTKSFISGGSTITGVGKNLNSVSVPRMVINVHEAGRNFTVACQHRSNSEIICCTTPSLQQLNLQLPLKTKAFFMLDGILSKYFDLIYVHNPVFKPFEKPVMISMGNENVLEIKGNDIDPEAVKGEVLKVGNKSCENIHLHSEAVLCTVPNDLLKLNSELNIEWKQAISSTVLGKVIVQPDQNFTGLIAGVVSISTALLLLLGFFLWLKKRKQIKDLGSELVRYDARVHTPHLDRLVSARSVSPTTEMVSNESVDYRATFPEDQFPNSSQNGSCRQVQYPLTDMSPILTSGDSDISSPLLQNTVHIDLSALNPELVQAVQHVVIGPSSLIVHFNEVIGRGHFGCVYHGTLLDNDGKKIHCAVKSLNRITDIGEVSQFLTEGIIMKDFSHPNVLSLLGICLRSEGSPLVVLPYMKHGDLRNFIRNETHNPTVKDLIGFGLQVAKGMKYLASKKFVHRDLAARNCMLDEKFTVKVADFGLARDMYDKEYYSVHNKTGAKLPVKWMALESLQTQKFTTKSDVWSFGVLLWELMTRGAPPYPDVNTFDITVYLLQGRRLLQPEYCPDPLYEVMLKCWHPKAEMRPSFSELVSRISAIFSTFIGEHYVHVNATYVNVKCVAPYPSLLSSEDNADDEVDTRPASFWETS
Chain of Mitogen-activated protein kinase 14 (Q16539 whole entry): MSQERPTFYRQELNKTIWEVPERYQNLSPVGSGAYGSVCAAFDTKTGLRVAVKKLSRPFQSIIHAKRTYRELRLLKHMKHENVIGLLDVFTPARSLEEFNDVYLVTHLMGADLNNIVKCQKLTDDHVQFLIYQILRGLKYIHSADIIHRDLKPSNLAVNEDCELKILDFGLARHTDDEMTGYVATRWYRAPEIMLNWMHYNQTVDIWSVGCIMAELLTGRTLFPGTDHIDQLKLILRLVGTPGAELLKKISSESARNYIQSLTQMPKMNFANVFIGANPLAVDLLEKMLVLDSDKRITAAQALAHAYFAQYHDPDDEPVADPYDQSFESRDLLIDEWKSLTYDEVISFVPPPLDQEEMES
Chain of Tyrosine-protein kinase JAK1 (P23458 whole entry, the tested form may be a part): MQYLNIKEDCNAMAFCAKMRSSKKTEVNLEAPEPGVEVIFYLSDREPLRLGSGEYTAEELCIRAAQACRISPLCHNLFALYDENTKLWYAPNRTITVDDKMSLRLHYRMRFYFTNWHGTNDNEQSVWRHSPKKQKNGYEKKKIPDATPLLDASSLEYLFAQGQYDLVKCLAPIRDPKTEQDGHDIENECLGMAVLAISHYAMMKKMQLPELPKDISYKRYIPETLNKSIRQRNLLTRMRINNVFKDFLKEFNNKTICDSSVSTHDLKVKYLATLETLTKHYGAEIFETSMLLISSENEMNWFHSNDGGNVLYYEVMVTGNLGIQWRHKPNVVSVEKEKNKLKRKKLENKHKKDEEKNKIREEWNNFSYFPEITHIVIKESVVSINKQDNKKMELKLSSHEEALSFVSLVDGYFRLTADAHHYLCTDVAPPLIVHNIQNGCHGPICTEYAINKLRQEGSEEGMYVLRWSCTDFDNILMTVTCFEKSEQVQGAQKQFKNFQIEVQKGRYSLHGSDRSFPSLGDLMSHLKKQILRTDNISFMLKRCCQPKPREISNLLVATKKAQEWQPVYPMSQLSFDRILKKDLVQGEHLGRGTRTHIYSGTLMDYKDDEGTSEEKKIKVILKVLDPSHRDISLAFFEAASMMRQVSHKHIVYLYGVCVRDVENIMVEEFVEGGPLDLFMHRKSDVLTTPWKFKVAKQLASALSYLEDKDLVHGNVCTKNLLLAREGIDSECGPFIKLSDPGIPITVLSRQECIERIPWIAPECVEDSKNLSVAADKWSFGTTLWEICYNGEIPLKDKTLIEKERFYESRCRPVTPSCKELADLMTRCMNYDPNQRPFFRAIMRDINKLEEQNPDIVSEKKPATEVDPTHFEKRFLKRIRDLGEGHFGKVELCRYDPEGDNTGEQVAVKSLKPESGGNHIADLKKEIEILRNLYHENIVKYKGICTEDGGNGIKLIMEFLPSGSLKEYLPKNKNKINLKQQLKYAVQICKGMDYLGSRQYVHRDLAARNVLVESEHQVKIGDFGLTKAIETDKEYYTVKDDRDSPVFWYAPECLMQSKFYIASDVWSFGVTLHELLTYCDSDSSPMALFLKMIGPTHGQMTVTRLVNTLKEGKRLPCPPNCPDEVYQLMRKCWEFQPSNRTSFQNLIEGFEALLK

The first assay has as its target Mitogen-activated protein kinase 14 (Homo sapiens, UniProt Q16539). Put plainly: Inhibition of full-length recombinant human GST-tagged MAPK14 alpha expressed in Escherichia coli by Z'-LYTE assay.
As to `O=C(NCC(F)(F)F)c1cc(-c2cnn3cc(-c4ccc(OCCN5CCCCC5)cc4)cnc23)cs1`, the IC50 amounted to 1.2 µM.

For the compound `Cn1cc(-c2cnc3c(-c4csc(C(=O)NCC(F)(F)F)c4)cnn3c2)cn1`, the IC50 came to 36 µM.

Turning to `Cc1sc(C(=O)N[C@@H]2[C@H](N)CCCC2(F)F)cc1-c1cnn2cc(Cl)cnc12`, the IC50 was above 100 µM.

In the case of `Cn1cc(-c2cnc3c(-c4csc(C(=O)N[C@@H]5CCCC[C@@H]5N)c4)cnn3c2)cn1` (racemic), the IC50 is 1.4 µM.

Another assay deals with T1, Serine/threonine-protein kinase TAO2 (Homo sapiens, UniProt Q9UL54).
T1 sequence (Q9UL54 whole entry): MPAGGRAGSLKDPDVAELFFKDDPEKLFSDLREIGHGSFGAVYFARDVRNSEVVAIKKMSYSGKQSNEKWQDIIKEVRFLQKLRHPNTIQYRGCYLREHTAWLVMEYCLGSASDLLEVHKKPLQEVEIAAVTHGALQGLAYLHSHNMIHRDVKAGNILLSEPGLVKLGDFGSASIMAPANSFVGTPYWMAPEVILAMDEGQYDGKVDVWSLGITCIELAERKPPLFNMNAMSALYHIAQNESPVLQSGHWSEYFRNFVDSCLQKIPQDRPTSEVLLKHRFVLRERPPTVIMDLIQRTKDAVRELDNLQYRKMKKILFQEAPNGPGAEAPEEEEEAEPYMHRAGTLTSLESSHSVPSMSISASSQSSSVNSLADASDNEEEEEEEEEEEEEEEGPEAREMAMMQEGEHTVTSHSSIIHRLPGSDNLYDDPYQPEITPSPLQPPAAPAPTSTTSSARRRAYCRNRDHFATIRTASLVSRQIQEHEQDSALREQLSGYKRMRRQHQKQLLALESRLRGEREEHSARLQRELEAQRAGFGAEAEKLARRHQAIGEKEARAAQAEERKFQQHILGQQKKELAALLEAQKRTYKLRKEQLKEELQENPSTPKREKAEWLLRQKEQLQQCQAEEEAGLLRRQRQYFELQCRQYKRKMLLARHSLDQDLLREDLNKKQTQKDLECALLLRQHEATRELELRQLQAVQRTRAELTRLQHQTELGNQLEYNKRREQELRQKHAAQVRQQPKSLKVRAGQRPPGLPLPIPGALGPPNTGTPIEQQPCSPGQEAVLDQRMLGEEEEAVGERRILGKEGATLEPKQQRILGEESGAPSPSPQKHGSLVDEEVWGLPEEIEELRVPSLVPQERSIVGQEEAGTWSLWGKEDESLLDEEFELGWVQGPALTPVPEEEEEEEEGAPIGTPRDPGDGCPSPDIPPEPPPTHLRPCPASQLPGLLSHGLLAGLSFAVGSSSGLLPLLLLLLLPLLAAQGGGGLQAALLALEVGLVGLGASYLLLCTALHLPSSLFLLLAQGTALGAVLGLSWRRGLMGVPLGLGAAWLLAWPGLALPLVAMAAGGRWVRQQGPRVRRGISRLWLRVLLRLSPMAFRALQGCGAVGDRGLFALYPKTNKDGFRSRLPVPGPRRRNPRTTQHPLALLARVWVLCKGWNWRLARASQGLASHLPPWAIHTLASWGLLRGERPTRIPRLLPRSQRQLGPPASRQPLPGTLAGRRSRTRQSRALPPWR
Put plainly: Inhibition of recombinant human GST-tagged TAOK2 catalytic domain expressed in baculovirus expression system by Z'-LYTE assay.
As to `O=C(NCC(F)(F)F)c1cc(-c2cnn3cc(-c4ccc(OCCN5CCCCC5)cc4)cnc23)cs1`, the IC50 is 2.7 µM.

As to `Cn1cc(-c2cnc3c(-c4csc(C(=O)NCC(F)(F)F)c4)cnn3c2)cn1`, the IC50 was 25 µM.

For `Cc1sc(C(=O)N[C@@H]2[C@H](N)CCCC2(F)F)cc1-c1cnn2cc(Cl)cnc12`, the IC50 was determined as 11 µM.

Consider `Cn1cc(-c2cnc3c(-c4csc(C(=O)N[C@@H]5CCCC[C@@H]5N)c4)cnn3c2)cn1` (racemic), for which the IC50 came to 0.42 µM.

For the next assay, the target named is T2, Serine/threonine-protein kinase Nek2 (Homo sapiens, UniProt P51955).
T2 sequence (P51955 whole entry): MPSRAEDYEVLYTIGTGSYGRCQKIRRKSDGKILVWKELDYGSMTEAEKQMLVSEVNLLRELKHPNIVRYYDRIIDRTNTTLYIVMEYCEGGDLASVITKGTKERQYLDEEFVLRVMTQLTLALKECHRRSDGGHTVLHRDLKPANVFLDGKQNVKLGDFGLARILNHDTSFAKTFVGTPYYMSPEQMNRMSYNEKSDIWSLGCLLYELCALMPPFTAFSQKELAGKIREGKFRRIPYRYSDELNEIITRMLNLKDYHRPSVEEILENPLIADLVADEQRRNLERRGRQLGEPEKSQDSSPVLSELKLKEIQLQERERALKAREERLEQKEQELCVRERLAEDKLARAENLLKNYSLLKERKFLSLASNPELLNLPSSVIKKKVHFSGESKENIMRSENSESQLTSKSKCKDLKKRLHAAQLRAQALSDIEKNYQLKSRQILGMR
As to the kind of experiment: Inhibition of full-length recombinant human His-tagged NEK2 expressed in baculovirus expression system by Z'-LYTE assay.
`O=C(NCC(F)(F)F)c1cc(-c2cnn3cc(-c4ccc(OCCN5CCCCC5)cc4)cnc23)cs1`: the IC50 is 16 µM.

With `Cn1cc(-c2cnc3c(-c4csc(C(=O)NCC(F)(F)F)c4)cnn3c2)cn1`, the IC50 is above 100 µM.

For `Cc1sc(C(=O)N[C@@H]2[C@H](N)CCCC2(F)F)cc1-c1cnn2cc(Cl)cnc12`, the IC50 was found to be 13 µM.

Turning to `Cn1cc(-c2cnc3c(-c4csc(C(=O)N[C@@H]5CCCC[C@@H]5N)c4)cnn3c2)cn1` (racemic), the IC50 came to 0.95 µM.

The next assay addresses Hepatocyte growth factor receptor (Homo sapiens, UniProt P08581). As to the kind of experiment: Inhibition of recombinant human N-terminal His-tagged cytoplasmic MET (956 to 1390 residues) expressed in baculovirus expression system by Z'-LYTE assay.
Regarding `O=C(NCC(F)(F)F)c1cc(-c2cnn3cc(-c4ccc(OCCN5CCCCC5)cc4)cnc23)cs1`, the IC50 turned out to be 1.4 µM.

`Cn1cc(-c2cnc3c(-c4csc(C(=O)NCC(F)(F)F)c4)cnn3c2)cn1`: the IC50 turned out to be 4 µM.

In the case of `Cc1sc(C(=O)N[C@@H]2[C@H](N)CCCC2(F)F)cc1-c1cnn2cc(Cl)cnc12`, the IC50 stood at 8.5 µM.

Regarding `Cn1cc(-c2cnc3c(-c4csc(C(=O)N[C@@H]5CCCC[C@@H]5N)c4)cnn3c2)cn1` (racemic), the IC50 was 0.41 µM.

The next assay addresses Tyrosine-protein kinase JAK1 (Homo sapiens, UniProt P23458). As to the kind of experiment: Inhibition of recombinant human GST-tagged cytoplasmic JAK1 (866 to 1154 residues) catalytic domain expressed in baculovirus expression system by Z'-LYTE assay.
On to `O=C(NCC(F)(F)F)c1cc(-c2cnn3cc(-c4ccc(OCCN5CCCCC5)cc4)cnc23)cs1`, for which the IC50 amounted to 2.3 µM.

Consider `Cn1cc(-c2cnc3c(-c4csc(C(=O)NCC(F)(F)F)c4)cnn3c2)cn1`, for which the IC50 turned out to be 4.2 µM.

For the compound `Cc1sc(C(=O)N[C@@H]2[C@H](N)CCCC2(F)F)cc1-c1cnn2cc(Cl)cnc12`, the IC50 turned out to be 4.3 µM.

Take `Cn1cc(-c2cnc3c(-c4csc(C(=O)N[C@@H]5CCCC[C@@H]5N)c4)cnn3c2)cn1` (racemic): the IC50 was 0.22 µM.

The target in another assay is Serine/threonine-protein kinase B-raf (Homo sapiens, UniProt P15056). As to the kind of experiment: Inhibition of full-length recombinant human GST-tagged BRAF expressed in baculovirus expression system by Z'-LYTE assay.
Chain of Serine/threonine-protein kinase B-raf (P15056 whole entry): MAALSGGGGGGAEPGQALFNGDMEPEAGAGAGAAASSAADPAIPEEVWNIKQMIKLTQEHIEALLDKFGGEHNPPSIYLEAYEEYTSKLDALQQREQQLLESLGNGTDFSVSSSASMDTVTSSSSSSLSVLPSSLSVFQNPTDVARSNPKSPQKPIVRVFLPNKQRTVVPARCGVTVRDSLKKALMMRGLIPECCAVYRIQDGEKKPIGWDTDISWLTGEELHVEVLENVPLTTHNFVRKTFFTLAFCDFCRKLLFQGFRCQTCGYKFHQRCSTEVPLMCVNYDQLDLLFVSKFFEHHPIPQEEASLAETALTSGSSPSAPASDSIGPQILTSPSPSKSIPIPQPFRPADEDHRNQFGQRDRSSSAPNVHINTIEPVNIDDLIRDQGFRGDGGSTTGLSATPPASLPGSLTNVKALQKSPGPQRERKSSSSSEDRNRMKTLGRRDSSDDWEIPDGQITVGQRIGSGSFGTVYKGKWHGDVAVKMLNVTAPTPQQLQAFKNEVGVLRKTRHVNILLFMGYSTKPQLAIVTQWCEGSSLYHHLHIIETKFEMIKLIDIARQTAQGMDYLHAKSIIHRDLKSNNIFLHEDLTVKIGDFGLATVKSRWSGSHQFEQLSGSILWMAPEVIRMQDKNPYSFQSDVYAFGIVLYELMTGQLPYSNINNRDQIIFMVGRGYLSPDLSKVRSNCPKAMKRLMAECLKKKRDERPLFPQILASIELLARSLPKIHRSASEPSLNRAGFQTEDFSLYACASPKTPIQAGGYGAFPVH
Turning to `O=C(NCC(F)(F)F)c1cc(-c2cnn3cc(-c4ccc(OCCN5CCCCC5)cc4)cnc23)cs1`, the IC50 came to 0.55 µM.

For the compound `Cn1cc(-c2cnc3c(-c4csc(C(=O)NCC(F)(F)F)c4)cnn3c2)cn1`, the IC50 is 1.5 µM.

Turning to `Cc1sc(C(=O)N[C@@H]2[C@H](N)CCCC2(F)F)cc1-c1cnn2cc(Cl)cnc12`, the concentration for half-maximal inhibition (IC50) was determined as 1.1 µM.

On to `Cn1cc(-c2cnc3c(-c4csc(C(=O)N[C@@H]5CCCC[C@@H]5N)c4)cnn3c2)cn1` (racemic), for which the IC50 is 0.019 µM.

The target of another assay is Dual specificity tyrosine-phosphorylation-regulated kinase 1A (Homo sapiens, UniProt Q13627). Put plainly: Inhibition of full-length recombinant human GST-tagged DYRK1A expressed in baculovirus expression system by Z'-LYTE assay.
Consider `O=C(NCC(F)(F)F)c1cc(-c2cnn3cc(-c4ccc(OCCN5CCCCC5)cc4)cnc23)cs1`, for which the IC50 is below 0.01 µM.

As for `Cn1cc(-c2cnc3c(-c4csc(C(=O)NCC(F)(F)F)c4)cnn3c2)cn1`, the IC50 stood at 0.011 µM.

For `Cc1sc(C(=O)N[C@@H]2[C@H](N)CCCC2(F)F)cc1-c1cnn2cc(Cl)cnc12`, the IC50 is 0.13 µM.

Turning to `Cn1cc(-c2cnc3c(-c4csc(C(=O)N[C@@H]5CCCC[C@@H]5N)c4)cnn3c2)cn1` (racemic), the IC50 stood at 0.0032 µM.

The next assay concerns the target T3, Activin receptor type-1B (Homo sapiens, UniProt P36896).
T3 sequence (P36896 whole entry): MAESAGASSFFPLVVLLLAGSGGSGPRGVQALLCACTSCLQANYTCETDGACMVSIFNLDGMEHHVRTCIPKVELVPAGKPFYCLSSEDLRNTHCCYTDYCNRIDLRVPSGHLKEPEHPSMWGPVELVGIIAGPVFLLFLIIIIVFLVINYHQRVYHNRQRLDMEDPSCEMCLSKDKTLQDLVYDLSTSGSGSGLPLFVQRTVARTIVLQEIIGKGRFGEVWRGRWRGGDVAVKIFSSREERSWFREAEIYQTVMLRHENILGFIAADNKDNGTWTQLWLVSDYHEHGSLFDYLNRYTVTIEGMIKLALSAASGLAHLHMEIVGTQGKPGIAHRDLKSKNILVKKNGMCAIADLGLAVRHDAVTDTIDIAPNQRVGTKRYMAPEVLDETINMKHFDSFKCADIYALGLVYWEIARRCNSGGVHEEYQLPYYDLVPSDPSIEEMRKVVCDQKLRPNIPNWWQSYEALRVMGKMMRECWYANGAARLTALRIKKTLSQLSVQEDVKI
Put plainly: Inhibition of recombinant human GST-tagged ALK4 catalytic domain expressed in baculovirus expression system by Z'-LYTE assay.
On to `O=C(NCC(F)(F)F)c1cc(-c2cnn3cc(-c4ccc(OCCN5CCCCC5)cc4)cnc23)cs1`, for which the IC50 worked out at 0.2 µM.

With `Cn1cc(-c2cnc3c(-c4csc(C(=O)NCC(F)(F)F)c4)cnn3c2)cn1`, the IC50 was 0.17 µM.

For the compound `Cc1sc(C(=O)N[C@@H]2[C@H](N)CCCC2(F)F)cc1-c1cnn2cc(Cl)cnc12`, the IC50 is above 100 µM.

On to `Cn1cc(-c2cnc3c(-c4csc(C(=O)N[C@@H]5CCCC[C@@H]5N)c4)cnn3c2)cn1` (racemic), for which the IC50 amounted to 0.73 µM.
